From patent publication US6982348B2, “Aminoethanol derivatives” (Takeda Pharmaceutical Company Limited, priority 2001, dated 2006)
Where a name gives a salt, the structure may show the parent alone.

First: CC1(C)CCC=Cc2c(C(=O)N[C@H](Cc3cccc(OC(F)(F)C(F)F)c3)[C@@H](O)c3ccc(F)cc3)cccc21 (racemic) [Example 305, N-[(1RS,2SR)-2-(4-fluorophenyl)-2-hydroxy-1-[3-(1,1,2,2-tetrafluoroethoxy)benzyl]ethyl]-5,5-dimethyl-6,7-dihydro-5H-benzo[a]cycloheptene-1-carboxamide]
Second: O=C(N[C@H](Cc1cccc(OC(F)(F)F)c1)[C@@H](O)c1ccc(F)cc1)c1cccc2c1C=CCCC2 (racemic) [Example 133, N-[(1RS,2SR)-2-(4-fluorophenyl)-2-hydroxy-1-[3-(trifluoromethoxy)benzyl]ethyl]-6,7-dihydro-5H-benzo[a]cycloheptene-1-carboxamide]
The melting point of the first is lower: 101 to 104 °C for the first, 177 to 178 °C for the second.

First: CCCCc1ccc(C(=O)N[C@H](Cc2ccc(C(F)(F)F)cc2)[C@@H](O)c2ccc(F)cc2)cc1 (racemic) [Example 79, 4-butyl-N-((1RS,2SR)-2-(4-fluorophenyl)-2-hydroxy-1-((4-(trifluoromethyl)phenyl)methyl)ethyl)benzamide]
Second: O=C(NC(Cc1ccc(C(F)(F)F)cc1)C(O)c1ccc(F)cc1)c1ccc(C(F)(F)F)cc1 (racemic) [Example 12, N-[2-(4-fluorophenyl)-2-hydroxy-1-[[4-(trifluoromethyl)phenyl]methyl]ethyl]-4-(trifluoromethyl)benzamide]
The melting point of the first is higher: 171 to 172 °C for the first, 167 to 169 °C for the second.

First: COC(=O)CCC(=O)O[C@H](c1ccc(F)cc1)[C@H](Cc1cccc(OC(F)(F)C(F)F)c1)NC(=O)c1cccc2c1C=CCCC2 (racemic) (as salt: succinate) [Example 383, (1RS,2SR)-2-[(6,7-dihydro-5H-benzo[a]cyclohepten-1-ylcarbonyl)amino]-1-(4-fluorophenyl)-3-[3-(1,1,2,2-tetrafluoroethoxy)phenyl]propyl methyl succinate]
Second: CC(=O)OCCOc1ccc([C@@H](O)[C@H](Cc2cccc(OC(F)(F)C(F)F)c2)NC(=O)c2cccc3c2C=CCCC3)cc1 (racemic) [Example 249, (4-{(1RS,2SR)-2-[(6,7-dihydro-5H-benzo[a][7]annulen-1-ylcarbonyl)amino]-1-hydroxy-3-[3-(1,1,2,2-tetrafluoroethoxy)phenyl]propyl}phenoxy)ethyl acetate]
The melting point of the first is higher: 170 to 171 °C for the first, 125 to 126 °C for the second.

First: CCOc1ccc2ccccc2c1C(=O)N[C@H](Cc1ccc(C(F)(F)F)cc1)[C@@H](O)c1ccc(F)cc1 (racemic) [Example 83, 2-(ethyloxy)-N-((1RS,2SR)-2-(4-fluorophenyl)-2-hydroxy-1-((4-(trifluoromethyl)phenyl)methyl)ethyl)-1-naphthalenecarboxamide]
Second: O=C(N[C@H](Cc1ccc(C(F)(F)F)cc1)[C@@H](O)c1ccc(F)cc1)c1ccc(CO)c2ccccc12 (racemic) [Example 105, N-((1RS,2SR)-2-(4-fluorophenyl)-2-hydroxy-1-((4-(trifluoromethyl)phenyl)methyl)ethyl)-4-(hydroxymethyl)-1-naphthalenecarboxamide]
The melting point of the first is lower: 157 to 158 °C for the first, 202 to 203 °C for the second.

First: O=C(N[C@H](Cc1ccc(C(F)(F)F)cc1)[C@@H](O)c1ccc(F)cc1)c1cccc2c(Cl)cccc12 (racemic) [Example 37, 5-chloro-N-[(1RS,2SR)-2-(4-fluorophenyl)-2-hydroxy-1-[4-(trifluoromethyl)benzyl]ethyl]naphthalene-1-carboxamide]
Second: COc1ccc2c(C(=O)N[C@H](Cc3ccc(C(F)(F)F)cc3)[C@@H](O)c3ccc(F)cc3)cccc2c1 (racemic) [Example 56, N-((1RS,2SR)-2-(4-fluorophenyl)-2-hydroxy-1-((4-(trifluoromethyl)phenyl)methyl)ethyl)-6-(methyloxy)-1-naphthalenecarboxamide]
The melting point of the first is higher: 211 to 212 °C for the first, 193 to 194 °C for the second.

First: O=C(CCc1ccccc1)N[C@H](Cc1ccc(C(F)(F)F)cc1)[C@@H](O)c1ccc(F)cc1F (racemic) [Example 182, N-((1RS,2SR)-2-(2,4-difluorophenyl)-2-hydroxy-1-((4-(trifluoromethyl)phenyl)methyl)ethyl)-3-phenylpropanamide]
Second: O=C(N[C@H](Cc1ccc(C(F)(F)F)cc1)[C@@H](O)c1ccccc1F)c1ccc(F)c2ccccc12 (racemic) [Example 179, 4-fluoro-N-((1RS,2SR)-2-(2-fluorophenyl)-2-hydroxy-1-((4-(trifluoromethyl)phenyl)methyl)ethyl)-1-naphthalenecarboxamide]
The melting point of the first is lower: 126 to 127 °C for the first, 190 to 191 °C for the second.

First: COc1ccc(C[C@@H](NC(=O)CCCc2ccccc2)[C@@H](O)c2ccc(F)cc2)cc1 (racemic) [Example 151, N-((1RS,2SR)-2-(4-fluorophenyl)-2-hydroxy-1-((4-(methyloxy)phenyl)methyl)ethyl)-4-phenylbutyramide]
Second: N#Cc1ccc(C[C@@H](NC(=O)c2ccc(F)c3ccccc23)[C@@H](O)c2ccc(F)cc2)cc1 (racemic) [Example 153, N-[(1RS,2SR)-1-(4-cyanobenzyl)-2-(4-fluorophenyl)-2-hydroxyethyl]-4-fluoronaphthalene-1-carboxamide]
The melting point of the first is lower: 130 to 131 °C for the first, 248 to 249 °C for the second.

`O=C(NC(Cc1ccc(C(F)(F)F)cc1)C(O)c1ccc(F)cc1)c1cccnc1` (racemic) [Example 21, N-[2-(4-fluorophenyl)-2-hydroxy-1-[[4-(trifluoromethyl)phenyl]methyl]ethyl]-3-pyridinecarboxamide] and `O=C(NC(Cc1ccc(C(F)(F)F)cc1)C(O)c1ccc(F)cc1)c1cccs1` (racemic) [Example 11, N-[2-(4-fluorophenyl)-2-hydroxy-1-[[4-(trifluoromethyl)phenyl]methyl]ethyl]-2-thiophenecarboxamide] cannot be ordered by melting point: 160 to 165 °C for the first, 135 to 164 °C for the second.

First: CC(C)(C)OC(=O)N[C@H](Cc1cccc(OC(F)(F)C(F)F)c1)[C@@H](O)c1ccc(Oc2ccccc2)cn1 (racemic) [Example 254, tert-butyl (1RS,2RS)-2-hydroxy-2-(5-phenoxypyridin-2-yl)-1-[3-(1,1,2,2-tetrafluoroethoxy)benzyl]ethylcarbamate]
Second: O=C(N[C@H](Cc1cccc(OC(F)(F)C(F)F)c1)[C@@H](O)c1ccc(Oc2ccccc2)cn1)c1ccc(F)c2ccccc12 (racemic) [Example 256, 4-fluoro-N-{(1RS,2RS)-2-hydroxy-2-(5-phenoxypyridin-2-yl)-1-[3-(1,1,2,2-tetrafluoroethoxy)benzyl]ethyl}-1-naphthamide]
The melting point of the first is lower: 129 to 130 °C for the first, 146 to 147 °C for the second.

First: O=C(N[C@H](Cc1ccc(C(F)(F)F)cc1)[C@@H](O)c1ccc(F)cc1)c1ccc2c(c1)OCO2 (racemic) [Example 72, N-((1RS,2SR)-2-(4-fluorophenyl)-2-hydroxy-1-((4-(trifluoromethyl)phenyl)methyl)ethyl)-1,3-benzodioxole-5-carboxamide]
Second: O=C(N[C@H](Cc1ccc(C(F)(F)F)cc1)[C@@H](O)c1ccc(F)cc1)c1cc([N+](=O)[O-])cc2c1CCCC2 (racemic) [Example 111, N-[(1RS,2SR)-2-(4-fluorophenyl)-2-hydroxy-1-[4-(trifluoromethyl)benzyl]ethyl]-3-nitro-5,6,7,8-tetrahydronaphthalene-1-carboxamide]
The melting point of the first is lower: 180 to 181 °C for the first, 216 to 217 °C for the second.

First: COC(=O)c1ccc(COc2ccc([C@@H](O)[C@H](Cc3cccc(OC(F)(F)C(F)F)c3)NC(=O)c3cccc4c3C=CCCC4)cc2)cc1 (racemic) [Example 248, methyl 4-[(4-{(1RS,2SR)-2-[(6,7-dihydro-5H-benzo[a][7]annulen-1-ylcarbonyl)amino]-1-hydroxy-3-[3-(1,1,2,2-tetrafluoroethoxy)phenyl]propyl}phenoxy)methyl]benzoate]
Second: O=C(N[C@H](Cc1cccc(OC(F)(F)C(F)F)c1)[C@@H](O)c1ccc(CO)cc1)c1cccc2c1C=CCCC2 (racemic) [Example 327, N-[(1RS,2SR)-2-hydroxy-2-[4-(hydroxymethyl)phenyl]-1-[3-(1,1,2,2-tetrafluoroethoxy)benzyl]ethyl]-6,7-dihydro-5H-benzo[a]cycloheptene-1-carboxamide]
The melting point of the first is higher: 169 to 170 °C for the first, 151 to 152 °C for the second.

First: O=C(N[C@H](Cc1cccc(OCC(F)(F)F)c1)[C@@H](O)c1ccc(F)cc1)c1ccc(F)c2ccccc12 (racemic) [Example 170, N-((1RS,2SR)-2-(4-fluorophenyl)-2-hydroxy-1-((3-(2,2,2-trifluoroethoxy)phenyl)methyl)ethyl)-4-fluoro-1-naphthalenecarboxamide]
Second: O=C(N[C@H](Cc1cccc(C(=O)C(F)(F)C(F)F)c1)[C@@H](O)c1ccc(F)cc1)c1cccc2c(Cl)cccc12 (racemic) [Example 350, 5-chloro-N-[(1RS,2SR)-2-(4-fluorophenyl)-2-hydroxy-1-[3-(2,2,3,3-tetrafluoropropionyl)benzyl]ethyl]naphthalene-1-carboxamide]
The melting point of the first is higher: 192 to 193 °C for the first, 154 to 155 °C for the second.

First: O=C(O)CCC(=O)O[C@H](c1ccc(F)cc1)[C@H](Cc1ccc2c(c1)OC(F)(F)C(F)(F)O2)NC(=O)c1ccc(F)c2ccccc12 (racemic) (as salt: succinate) [Example 396, (1RS,2SR)-1-(4-fluorophenyl)-2-[(4-fluoro-1-naphthoyl)amino]-3-(2,2,3,3-tetrafluoro-2,3-dihydro-1,4-benzodioxin-6-yl)propyl hydrogen succinate]
Second: O=C(N[C@H](Cc1ccccc1C(F)(F)F)[C@@H](O)c1ccc(F)cc1)c1cccc2ccccc12 (racemic) [Example 140, N-((1RS,2SR)-2-(4-fluorophenyl)-2-hydroxy-1-((2-(trifluoromethyl)phenyl)methyl)ethyl)-1-naphthalenecarboxamide]
The melting point of the first is higher: 196 to 197 °C for the first, 193 to 194 °C for the second.

`O=C(N[C@H](Cc1cccc(OC(F)(F)C(F)F)c1)[C@@H](O)c1ccc(-c2ccccc2Cl)cc1)c1cccc2c1C=CCCC2` (racemic) [Example 293, N-[(1RS,2SR)-2-(2′-chloro[1,1′-biphenyl]-4-yl)-2-hydroxy-1-[3-(1,1,2,2-tetrafluoroethoxy)benzyl]ethyl]-6,7-dihydro-5H-benzo[a]cycloheptene-1-carboxamide] gave a melting point of 172 to 173 °C.
